According to article PMC8587000, “Pyridinone Derivatives as Interesting Formyl Peptide Receptor (FPR) Agonists for the Treatment of Rheumatoid Arthritis” (Molecules, 2021):

Columns and labels:
[1] = test system: human neutrophils (hPMN); experiment: Ca2+ mobilization in human neutrophils (hPMN); format: cell-based; settings: Neutrophil; for Emax: read-out: hPMN Efficacy (converted)
Source text: Blood was collected from healthy donors in accordance with a protocol approved by the Institutional Review Board at Montana State University. Neutrophils were purified from the blood using dextran sedimentation, followed by Histopaque 1077 gradient separation and hypotonic lysis of red blood cells. Isolated neutrophils were washed twice and resuspended in HBSS^-. Neutrophil preparations were routinely >95% pure, as determined by light microscopy, and >98% viable, as determined by trypan blue exclusion.
Changes in intracellular Ca^2+ were measured with a FlexStation II scanning fluorometer (Molecular Devices, Sunnyvale, CA, USA). The cells, suspended in Hank’s balanced salt solution without Ca^2+ and Mg^2+ but with 10 mM HEPES (HBSS^−), were loaded with 1.25 μg/mL Fluo-4 AM dye and incubated for 30 min in the dark at 37 °C. After dye loading, the cells were washed with HBSS^- containing 10 mM HEPES, resuspended in HBSS^+ containing Ca^2+, Mg^2+, and 10 mM HEPES (HBSS^+), and aliquoted into the wells of flat-bottom, half-area-well black microtiter plates (2 × 10^5 cells/well). For the evaluation of direct agonist activity, compounds of interest were added from a source plate containing dilutions of test compounds in HBSS^+, and changes in fluorescence were monitored (λex = 485 nm, λem = 538 nm) every 5 s for 240 s at room temperature after the automated addition of compounds. Maximum change in fluorescence during the first 3 min, expressed in arbitrary units over baseline, was used to determine a response. […] Curve fitting (5–6 points) and calculation of median effective inhibitory concentrations (IC50) were performed by nonlinear regression analysis of the dose–response curves generated using Prism 9 (GraphPad Software, Inc., San Diego, CA, USA).

[2] = target: T1, FPR2 (Homo sapiens, UniProt P25090); experiment: Ca2+ mobilization in FPR2-transfected HL60 cells; format: cell-based; settings: for Emax: HL-60, read-out: FPR2-HL60 Efficacy (converted); for selectivity index (SI) FPR1/FPR2: ratio of EC50 FPR1-HL60 / FPR2-HL60
T1 construct: expressed in transfected cells; host or cells: HL60 (human promyelocytic leukemia), stably transfected; gift from Dr. Marie-Josephe Rabiet
T1 sequence (P25090 1-351): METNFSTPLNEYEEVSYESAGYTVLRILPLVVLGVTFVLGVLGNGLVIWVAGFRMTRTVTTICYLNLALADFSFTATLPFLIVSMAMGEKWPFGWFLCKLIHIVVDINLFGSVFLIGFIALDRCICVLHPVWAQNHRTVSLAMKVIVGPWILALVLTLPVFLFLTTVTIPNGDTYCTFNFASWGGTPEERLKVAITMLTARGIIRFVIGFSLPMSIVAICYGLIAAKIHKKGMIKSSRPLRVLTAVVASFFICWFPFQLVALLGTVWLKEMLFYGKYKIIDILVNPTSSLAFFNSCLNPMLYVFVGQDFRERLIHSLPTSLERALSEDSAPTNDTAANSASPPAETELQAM
Description: (§1) Human promyelocytic leukemia HL60 cells stably transfected with FPR1 (FPR1-HL60 cells) or FPR2 (FPR2-HL60 cells) (kind gift from Dr. Marie-Josephe Rabiet, Université Joseph Fourier, Grenoble, France) were cultured in RPMI 1640 medium supplemented with 10% heat-inactivated fetal calf serum, 10 mM HEPES, 100 μg/mL streptomycin, 100 U/mL penicillin, and G418 (1 mg/mL). G418 was removed in the last round of culture before assays were performed.

[3] = target: T2, FPR1 (Homo sapiens, UniProt P21462); experiment: Ca2+ mobilization in FPR1-transfected HL60 cells; format: cell-based; settings: for Emax: HL-60, read-out: FPR1-HL60 Efficacy (converted)
T2 construct: expressed in transfected cells; host or cells: HL60 (human promyelocytic leukemia), stably transfected; gift from Dr. Marie-Josephe Rabiet
T2 sequence (P21462 1-350): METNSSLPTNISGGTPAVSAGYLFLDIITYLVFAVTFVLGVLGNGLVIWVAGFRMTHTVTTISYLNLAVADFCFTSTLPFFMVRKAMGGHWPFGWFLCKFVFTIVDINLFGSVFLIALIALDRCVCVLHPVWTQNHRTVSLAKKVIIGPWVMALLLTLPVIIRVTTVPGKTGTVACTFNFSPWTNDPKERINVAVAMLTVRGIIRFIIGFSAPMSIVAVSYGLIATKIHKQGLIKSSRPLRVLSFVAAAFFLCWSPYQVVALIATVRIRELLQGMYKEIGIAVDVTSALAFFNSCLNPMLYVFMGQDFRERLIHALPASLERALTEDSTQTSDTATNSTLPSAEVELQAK
Description: as §1

| Structure (SMILES) | EC50 [1] | Emax [1] | melting point | EC50 [2] | Emax [2] | selectivity index (SI) FPR1/FPR2 [2] | EC50 [3] | Emax [3] |
| --- | --- | --- | --- | --- | --- | --- | --- | --- |
| CCCCNC(=O)c1cc(C#N)c(=O)n(CC(=O)Nc2ccc(Br)cc2)c1C [Compound 8d, 1-{2-[(4-Bromophenyl)amino]-2-oxoethyl}-N-butyl-5-cyano-2-methyl-6-oxo-1,6-dihydropyridine-3-carboxamide] | 4 ± 0.9 µM | 70% | 261 to 263 °C (dec.) | 1 ± 0.4 µM | 130% | 9 | 9.1 ± 1.4 µM | 140% |
| Cc1c(C(=O)N(C)C)cc(C#N)c(=O)n1CC(=O)Nc1ccc(Br)cc1 [Compound 8e, 1-{2-[(4-Bromophenyl)amino]-2-oxoethyl}-5-cyano-N,N,2-trimethyl-6-oxo-1,6-dihydropyridine-3-carboxamide] | 20.8 ± 4.8 µM | 110% | 122 to 124 °C | 2.4 ± 1.2 µM | 150% | 7.5 | 18 ± 3.5 µM | 110% |
| CCCCOC(=O)c1cc(C#N)c(=O)n(CC(=O)Nc2ccc(Br)cc2)c1C [Compound 4b, Butyl 1-{2-[(4-bromophenyl)amino]-2-oxoethyl}-5-cyano-2-methyl-6-oxo-1,6-dihydropyridine-3-carboxylate] | 27.9 ± 3.2 µM | 110% | 109 to 111 °C (dec.) | 18.3 ± 4.2 µM | 75% |  | 29.7 ± 4.6 µM | 70% |
| COc1cccc(COC(=O)c2cc(C#N)c(=O)n(CC(=O)Nc3ccc(Br)cc3)c2C)c1 [Compound 4d, 3-Methoxybenzyl 1-{2-[(4-bromophenyl)amino]-2-oxoethyl}-5-cyano-2-methyl-6-oxo-1,6-dihydropyridine-3-carboxylate] | 12.7 ± 3.9 µM | 65% |  | 14.1 ± 3.8 µM | 100% |  | 20.8 ± 3.7 µM | 85% |
| CCCOC(=O)c1cc(C#N)c(=O)n(CC(=O)Nc2ccc(Br)cc2)c1C [Compound 4a, Propyl 1-{2-[(4-bromophenyl)amino]-2-oxoethyl}-5-cyano-2-methyl-6-oxo-1,6-dihydropyridine-3-carboxylate] | 6.4 ± 1.7 µM | 115% | 193 to 195 °C (dec.) | 3.2 ± 0.6 µM | 140% |  | 16.3 ± 3.4 µM | 115% |
| CCNC(=O)c1cc(C#N)c(=O)n(CC(=O)Nc2ccc(Br)cc2)c1C [Compound 8b, 1-{2-[(4-Bromophenyl)amino]-2-oxoethyl}-5-cyano-N-ethyl-2-methyl-6-oxo-1,6-dihydropyridine-3-carboxamide] | 11.4 ± 3.1 µM | 80% | 290 °C (dec.) | 3.3 ± 0.2 µM | 120% | 6 | 21.2 ± 1.2 µM | 145% |
| COc1cccc(-c2cc(C#N)c(=O)n(CC(=O)Nc3cccc(O)c3)c2C)c1 [Compound 13b, 2-[3-Cyano-5-(3-methoxyphenyl)-6-methyl-2-oxopyridin-1(2H)-yl]-N-(3-hydroxyphenyl) acetamide] |  |  | 128 to 130 °C |  |  |  |  |  |
| Cc1c(C(N)=O)cc(C#N)c(=O)n1CC(=O)Nc1ccc(Br)cc1 [Compound 6, 1-{2-[(4-Bromophenyl)amino]-2-oxoethyl}-5-cyano-2-methyl-6-oxo-1,6-dihydropyridine-3-carboxamide] | 29.1 ± 3.6 µM | 90% |  | 8.4 ± 0.6 µM | 125% |  | 27.1 ± 4.2 µM | 60% |
| COc1ccc(C(=O)c2cc(C(N)=O)c(=O)n(CC(=O)Nc3ccc(Br)cc3)c2C)cc1 [Compound 10, 1-{2-[(4-bromophenyl)amino]-2-oxoethyl}-5-(4-methoxybenzoyl)-6-methyl-2-oxo-1,2-dihydropyridine-3-carboxamide] | 7.5 ± 2.1 µM | 120% |  | 3.4 ± 0.7 µM | 130% |  | 4.4 ± 0.5 µM | 105% |
| CCCNC(=O)c1cc(C#N)c(=O)n(CC(=O)Nc2ccc(Br)cc2)c1C [Compound 8c, 1-{2-[(4-bromophenyl)amino]-2-oxoethyl}-5-cyano-2-methyl-6-oxo-N-propyl-1,6-dihydropyridine-3-carboxamide] | 7.2 ± 1.6 µM | 70% | 274 to 276 °C (dec.) | 1.3 ± 0.1 µM | 135% |  | 7 ± 0.7 µM | 120% |
| Cc1c(C(=O)O)cc(C#N)c(=O)n1CC(=O)Nc1ccc(Br)cc1 [Compound 2, 1-{2-[(4-Bromophenyl)amino]-2-oxoethyl}-5-cyano-2-methyl-6-oxo-1,6-dihydropyridine-3-carboxylic acid] | 4.3 ± 1.5 µM | 120% | 180 to 182 °C (dec.) | 9.2 ± 1.9 µM | 100% |  | 3.5 ± 0.9 µM | 100% |
| COc1ccc(C(=O)c2cc(C#N)c(=O)n(CC(=O)Nc3ccc(Br)cc3)c2C)cc1 [Compound 11, N-(4-bromophenyl)-2-[3-cyano-5-(4-methoxybenzoyl)-6-methyl-2-oxopyridin-1(2H)-yl]acetamide] | 7.8 ± 2.2 µM | 120% |  | 1.9 ± 0.2 µM | 110% |  | 5.2 ± 0.4 µM | 105% |
| Cc1c(-c2cccc(O)c2)cc(C#N)c(=O)n1CC(=O)Nc1cccc(O)c1 [Compound 14b, 2-[3-Cyano-5-(3-hydroxyphenyl)-6-methyl-2-oxopyridin-1(2H)-yl]-N-(3-hydroxyphenyl) acetamide] |  |  | 187 to 189 °C (dec.) | 37.6 ± 5.6 µM | 150% |  | 40.1 ± 7.2 µM | 50% |
| COc1cccc(CCOC(=O)c2cc(C#N)c(=O)n(CC(=O)Nc3ccc(Br)cc3)c2C)c1 [Compound 4e, 3-Methoxyphenethyl 1-{2-[(4-bromophenyl)amino]-2-oxoethyl}-5-cyano-2-methyl-6-oxo-1,6-dihydropyridine-3-carboxylate] | 17.9 ± 4.2 µM | 65% |  | 17.3 ± 4.1 µM | 75% |  | 24.1 ± 5.2 µM | 70% |
| Cc1c(-c2cccc(O)c2)cc(C#N)c(=O)n1CC(=O)Nc1ccc(O)cc1 [Compound 14c, 2-[3-Cyano-5-(3-hydroxyphenyl)-6-methyl-2-oxopyridin-1(2H)-yl]-N-(4-hydroxyphenyl) acetamide] |  |  | 232 to 234 °C (dec.) |  |  |  |  |  |
| COc1cccc(-c2cc(C#N)c(=O)n(CC(=O)Nc3ccc(O)cc3)c2C)c1 [Compound 13c, 2-[3-Cyano-5-(3-methoxyphenyl)-6-methyl-2-oxopyridin-1(2H)-yl]-N-(4-hydroxyphenyl) acetamide] |  |  | 127 to 129 °C |  |  |  |  |  |
| Cc1c(C(=O)OC(C)C)cc(C#N)c(=O)n1CC(=O)Nc1ccc(Br)cc1 [Compound 4c, Isopropyl 1-{2-[(4-bromophenyl)amino]-2-oxoethyl}-5-cyano-2-methyl-6-oxo-1,6-dihydropyridine-3-carboxylate] | 10.2 ± 1.9 µM | 120% | 223 to 224 °C | 8.4 ± 1.7 µM | 85% |  | 7.7 ± 1.7 µM | 180% |
| CNC(=O)c1cc(C#N)c(=O)n(CC(=O)Nc2ccc(Br)cc2)c1C [Compound 8a, 1-{2-[(4-Bromophenyl)amino]-2-oxoethyl}-5-cyano-N,2-dimethyl-6-oxo-1,6-dihydropyridine-3-carboxamide] | 4.9 ± 1.2 µM | 105% | > 300 °C (dec.) | 1.3 ± 0.4 µM | 115% |  | 2.2 ± 0.6 µM | 105% |
